Source: US10975030B2, “Grp94 selective inhibitors and uses thereof” (University of Kansas, priority 2016, dated 2021)
Like-named read-outs stand apart in the source and are kept apart here.

What was measured:
[1] = target: Grp94 (recombinant cGrp94) (Canis lupus familiaris (Dog) (Canis familiaris), UniProt P41148); assay: Fluorescence polarization (FP) assay, cGrp94 with FITC-GDA; assay type: binding
Protocol: (§1) Fluorescence Polarization. Assay buffer (25 μL, 20 mM HEPES pH 7.3, 50 mM KCl, 5 mM MgCl2, 1 mM DTT, 20 mM Na2MoO4, 0.01% NP-40, and 0.5 mg/mL BGG) was added to 96-well plate (black well, black bottom) followed by the desired compound at the indicated final concentrations in DMSO (1% DMSO final concentration). […] Plates were incubated with rocking for 5 h at 4° C. […] Percent FITC-GDA bound was determined by using the DMSO millipolarization unit (mP) as the 100% bound value and the 0% for FITC-GDA. Kd values were calculated from separate experiments performed in triplicate using GraphPad Prism.

Hsp90α = Hsp90α (Homo sapiens (Human), UniProt P07900); assay: Fluorescence polarization (FP) assay, Hsp90α; assay type: binding
Protocol: as §1

[2] = system: integrin α2, integrin αL, Syne2, VAMP2, Rab10 in PC3-MM2 cells; assay: Cell fractionation and Western blot analysis of PC3-MM2 cells; assay type: cell-based; conditions: 30 μM, 24 h, cytoplasmic (Cyto) fraction, compared to DMSO, FIG. 2A
Protocol: (§2) Chemicals and Cell culture. Compounds were dissolved in DMSO and stored at −20° C. until use. The PC3-MM2 and MDA-MB-231 cells were maintained in DMEM (Cellgro) media supplemented with streptomycin (500 μg/mL), penicillin (100 units/mL) and 10% FBS at 37° C. and 5% CO2.
(§3) Antibodies. The following antibodies were used for western blotting and/or immunofluorescence: goat anti-integrin α L #sc6609, rabbit anti-SYNE2 #sc99066, and rabbit anti-actin #sc1616-R (Santa Cruz Biotech-nology, Santa Cruz, Calif.); rabbit anti-Integrin α 2 #ab181548, rabbit anti-VAMP2 #ab3347 (Abcam, Cambridge, Mass.); Phalloidin 647 #A22287 (Invitrogen, Carlsbad Calif.); rabbit anti-Rab10 #4262S (Cell Signaling Technology, Danvers, Mass.).
Cell fractionation and Western Blot Analysis. […] After sedimenting the cell debris, the protein concentration of each lysate was measured in quadruplicate using the BCA protein assay and bovine serum albumin as the standard. The coefficient of variation was determined for each set of quadruplicate measures and if the variability exceeded 5%, the protein assay was repeated for that set of samples. […]

PC3-MM2 cells = assay: Immunofluorescence / confocal microscopy analysis of PC3-MM2 cells; assay type: cell-based; conditions: FIG. 2B; for F-actin localization: confocal microscopy, versus DMSO treated cells; for integrin α2 localization: immunofluorescence, versus untreated cells
Protocol: as §2, §3
Immunofluorescence Analysis. For cell imaging, 1 μm-Slide 8 well ibidiTreat IBIDI glass slides were used. PC3-MM2 cells were fixed with freshly made 4% (w/w) paraformaldehyde in PBS for 15 min, permeabilized with 0.1% (w/w) Tween 20 in PBS for 5 min and quenched with 0.1% (w/w) sodium borohydride for 5 min. The sections were blocked with 3% (w/w) BSA in PBS for 1 h and incubated with the primary antibody at a 1:100 concentration in 1% BSA in PBS overnight, prior to incubation with secondary antibody conjugated with Alexa Fluor 568 for 3 h. The sections were counterstained with DAPI and/or with Phalloidin to visualize DNA and filamentous actin (F-actin), respectively. The wells were washed three times with PBS after each step.
Confocal images were acquired using a custom epifluorescent/confocal microscope composed of the following components: an Olympus IX81 inverted spinning disc confocal microscope base (Olympus America, Center Valley, Pa.), a Prior microscope stage for automated image acquisition (Prior Scientific, Rockland, Mass.), an Olympus 60X oil Immersion objective for confocal images (Olympus) and a Hamamatsu Electron Multiplying Charge-Coupled Device (EMCCD) camera (Hamamatsu, Hamamatsu, Shizuoka Prefecture, Japan). Images were captured using the SlideBook acquisition and analysis software, (Intelligent Imaging Innovations (3i), Denver, Colo.).
Images were collected with 8-10 image stacks with a 0.3 micron step size through the cells. Images were processed using Image J software (NIH).

MDA-MB-231 cells = assay: Wound healing scratch assay, MDA-MB-231; assay type: cell-based; conditions: 10 μM ('at 10 μM and 5 μM respectively'), 0, 16, 24 h, FIG. 3A
Protocol: as §2
(§4) Wound Healing Scratch Assay. The cells were seeded in a 24-well plate in complete media and allowed to form a monolayer. After monolayer formation, a scratch was introduced with a sterile 0.1-10 μl pipet tip. The media was replaced with fresh media in the absence or presence of the indicated drug concentrations. Photomicrographs were taken at different time points with an Olympus IX71 microscope using a 10x air lens and CellSans Dimensions software. The images were processed with Image J software.

PC-3 MM-2 cells = assay: Wound healing scratch assay, PC-3 MM-2; assay type: cell-based; conditions: 5 μM ('at 10 μM and 5 μM respectively'), 0, 16, 24 h, FIG. 3B
Protocol: as §2, §4

[3] = Anti-proliferation assay (MTS/PMS), MDA-MB-231; assay type: cell-based; conditions: human, MDA-MB-231 cells, MDA-MB-231, 25 μM
Protocol: (§5) Anti-proliferation Assays. Cells were seeded (2000/well, 100 μL) in 96-well plates and incubated overnight. Following incubation, compounds with varying concentrations in DMSO (1% DMSO final concentration) were added and cells were returned to the incubator for 72 h. After 72 h, the cell viability was determined using an MTS/PMS cell proliferation kit (Promega) per the manufacturer's instructions. Absorption value from 1% DMSO wells were used as 100% proliferation, and values were adjusted accordingly.

[4] = Anti-proliferation assay (MTS/PMS), PC-3 MM-2; assay type: cell-based; conditions: human, PC-3 MM-2 cells, PC-3 MM-2, 25 μM
Protocol: as §5

I477N mutant myocilin = assay: Western blot of I477N mutant myocilin levels in tetracycline inducible HEK cells; assay type: cell-based; conditions: 30 μM, 24 h, HEK cells over-expressing I477N myocilin
Protocol: (§6) Cell Culture. Cell culture was performed as described in the art.^25 Tetracycline-inducible Hek cells stably overexpressing I477N mutant myocilin were grown and maintained in Dulbecco's Modified Eagle's Medium supplemented with 10% fetal bovine serum (Invitrogen, penicillin (100 units/mL), streptomycin ([…]) and 1% GlutaMAX (Invitrogen) at 37 C and 5% CO2. Stably overexpressing cells were selected for using hygromycin B ([…]) (InvivoGen) and G418 ([…]) (Gibco). I477N myocilin expression was induced with tetracycline ([…]) for 48H prior to drug treatment.
(§7) Inhibitor Treatment. Inhibitors were solubilized in DMSO (Sigma Aldrich), and diluted to documented concentrations. Cells were treated drop wise with inhibitors 24H prior to cell harvest. DMSO concentration was diluted to 1% total cell medium volume.
(§8) Cell Harvest. Cell harvest was performed as previously described.^21 24H after inhibitor treatment, culture medium was removed and cells were washed 2× with ice cold PBS. […]
(§9) Western Blotting. Western blot analysis was performed as previously described.^41 Cell lysates were prepared at identical protein concentrations, as determined by BCA analysis, in 2× Laemmli sample buffer (Bio-Rad) and denatured by boiling for 5 min at 100 C. […]

Akt = assay: Western blot of cytosolic Hsp90 client protein Akt; assay type: cell-based; conditions: 30 μM (same concentration)
Protocol: as §6, §7, §8, §9

Hsp70 = assay: Western blot of Hsp70 levels; assay type: cell-based; conditions: compared to 17-AAG (5 μM reference)
Protocol: as §6, §7, §8, §9

Grp94 (recombinant cGrp94), sequence (P41148 22-804): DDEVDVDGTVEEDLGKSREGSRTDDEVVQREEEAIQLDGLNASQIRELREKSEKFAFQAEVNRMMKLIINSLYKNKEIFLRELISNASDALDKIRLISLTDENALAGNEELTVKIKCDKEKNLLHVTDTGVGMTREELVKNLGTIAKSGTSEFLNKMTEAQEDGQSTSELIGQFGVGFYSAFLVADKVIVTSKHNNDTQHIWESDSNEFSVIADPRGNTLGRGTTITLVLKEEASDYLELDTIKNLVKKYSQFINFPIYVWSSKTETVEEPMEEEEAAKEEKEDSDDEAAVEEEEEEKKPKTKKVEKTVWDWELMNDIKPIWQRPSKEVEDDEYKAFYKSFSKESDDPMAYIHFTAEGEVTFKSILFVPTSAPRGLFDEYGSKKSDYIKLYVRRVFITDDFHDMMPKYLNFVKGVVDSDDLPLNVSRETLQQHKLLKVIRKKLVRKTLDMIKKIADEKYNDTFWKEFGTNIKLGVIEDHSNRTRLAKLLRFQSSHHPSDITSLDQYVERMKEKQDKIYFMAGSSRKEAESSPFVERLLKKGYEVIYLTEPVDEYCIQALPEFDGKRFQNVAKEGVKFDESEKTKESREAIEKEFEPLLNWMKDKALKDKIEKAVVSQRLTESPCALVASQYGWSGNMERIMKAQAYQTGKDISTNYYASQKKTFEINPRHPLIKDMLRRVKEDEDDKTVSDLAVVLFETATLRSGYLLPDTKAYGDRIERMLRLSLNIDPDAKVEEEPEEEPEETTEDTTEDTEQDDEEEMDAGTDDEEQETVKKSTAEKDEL

Kd ([1]; apparent Kd, cGrp94 and FITC-GDA, triplicates, ± SEM, read-out: Kd Grp94) | Kd ([1]; read-out: apparent Kd towards Grp94) | Kd (Hsp90α) | Compound | levels of integrin α2, integrin αL, Syne2, VAMP2, and Rab10 [2] | F-actin localization (PC3-MM2 cells) | integrin α2 localization (PC3-MM2 cells) | migration of MDA-MB-231 cells (MDA-MB-231 cells) | migration of PC-3 MM-2 cells (PC-3 MM-2 cells) | viability at 72 h, 25 µM [3] | viability at 72 h, 25 µM [4] | mutant myocilin levels (I477N mutant myocilin) | Akt maturation (Akt) | Hsp70 levels (Hsp70)
720 ± 140 nM | ~724 nM | > 100000 nM | NC(=O)c1ccc(-n2cccc2Cc2ccccc2F)cc1N[C@H]1CC[C@H](O)CC1 [Compound 8e, 4-(2-(2-fluorobenzyl)-1H-pyrrol-1-yl)-2-(((1r,4r)-4-hydroxycyclohexyl)amino)benzamide] | reduced levels | formed sporadic patches in the cytoplasm | localized as patches in the cytoplasm | inhibited migration | inhibited migration | > 95% | > 95% |  |  | 
 |  |  | NC(=O)c1ccc(-n2cccc2Cc2ccccc2O)cc1N[C@H]1CC[C@H](O)CC1 [Compound 8j, 4-(2-(2-hydroxybenzyl)-1H-pyrrol-1-yl)-2-(((1r,4r)-4-hydroxycyclohexyl)amino)benzamide] | reduced levels | formed sporadic patches in the cytoplasm | localized as patches in the cytoplasm | inhibited migration | inhibited migration | > 95% | > 95% | significant decrease | did not affect | remained unaffected
